Test results as given in US20130251743A1, “Fungal extracts and uses thereof” (CERMEDI OY, priority 2010, published 2013).

Test system: human retinal pigment epithelial cells (hRPE)
Assay: WST-1 cytotoxicity test of hRPE cells exposed to hydrogen peroxide-induced oxidative stress
Format: cell-based
Details: ARPE-19 cells exposed to H2O2
Protocol: Human ARPE-19 retinal pigment epithelial cells (RPE) were obtained from American Type Culture Collection (USA). The cells were grown to confluency in a standard incubator in appropriate Dulbecco's MEM/Nut MIX F-12 medium (Gibco, UK). Oxidative stress was applied to the cells (1×10^4 cells/well) by using various concentrations of H2O2. Cytotoxicity was evaluated by two cytotoxicity tests, WST-1 test. WST-1 test reagent was purchased from Roche, Basel, Switzerland. WST-1 test is based on the cleavage of the tetrazolium salt WST-1 (4-*3-(4-iodophenyl)-2-(4-nitrophenyl)-2H-5-tetrazolio*-1,3-benzene disulfonate, slightly red) to formazan (dark red) by various mitochondrial dehydrogenase enzymes. The mean optical density values corresponding to the non-treated controls were taken as 100%. The results were expressed as percentages of the optical density of treated vs. untreated controls. Dose-response curves were drawn from the results expressed as mean±standard error of mean (SEM) by Graph Pad Prism software (GraphPad™, San Diego, US) using non-linear regression analysis. […] The statistical significance of the differences between the cultures exposed to H2O2 and tested extracts without or with serum was determined with the Student's two-tailed t-test (GraphPad Prism). […]

Structure (SMILES): COc1cc(C[C@@H](CO)[C@H](CO)Cc2ccc(O)c(OC)c2)ccc1O [secoisolariciresinol (SECO), secoisolariciresinol]
- protection of hRPE cells against oxidative damage (WST-1 test): did not protect hRPE cells from oxidative damage
